# Article PMC7265341, “Quantifying CDK inhibitor selectivity in live cells” (Nature Communications, 2020)
# Like-named read-outs stand apart in the source and are kept apart here.
# Experiments:
# [1] = biological target: CDK7 (Homo sapiens, UniProt P50613); experiment: NanoBRET live-cell target engagement, NanoLuc-CDK7 in HEK-293; format: binding; conditions: CDK7, 10µM
# [2] = biological target: CDK6/Cyclin D1 (Homo sapiens, UniProt Q00534); experiment: NanoBRET live-cell target engagement, NanoLuc-CDK6/Cyclin D1 in HEK-293; format: binding; conditions: CDK6/D1, 10µM
# [3] = biological target: CDK15/Cyclin Y (Homo sapiens, UniProt Q96Q40); experiment: NanoBRET live-cell target engagement, NanoLuc-CDK15/Cyclin Y in HEK-293; format: binding; conditions: CDK15/Y, 10µM
# [4] = biological target: CDK5/CDK5R1 (Homo sapiens, UniProt Q00535); experiment: NanoBRET live-cell target engagement, CDK5-NanoLuc/CDK5R1 in HEK-293; format: binding; conditions: CDK5/CDK5R1, 10µM
# [5] = biological target: CDK17/Cyclin Y (Homo sapiens, UniProt Q00537); experiment: NanoBRET live-cell target engagement, CDK17-NanoLuc/Cyclin Y in HEK-293; format: binding; conditions: CDK17/Y, 10µM
# [6] = biological target: CDK4/Cyclin D1 (Homo sapiens, UniProt P11802); experiment: NanoBRET live-cell target engagement, NanoLuc-CDK4/Cyclin D1 in HEK-293; format: binding; conditions: CDK4/D1, 10µM
# [7] = biological target: CDK16/Cyclin Y (Homo sapiens, UniProt Q00536); experiment: NanoBRET live-cell target engagement, CDK16-NanoLuc/Cyclin Y in HEK-293; format: binding; conditions: CDK16/Y, 10µM
# [8] = biological target: CDK20/Cyclin H (Homo sapiens, UniProt Q8IZL9); experiment: NanoBRET live-cell target engagement, NanoLuc-CDK20/Cyclin H in HEK-293; format: binding; conditions: CDK20/H, 10µM
# [9] = biological target: CDK19/Cyclin C (Homo sapiens, UniProt Q9BWU1); experiment: NanoBRET live-cell target engagement, NanoLuc-CDK19/Cyclin C in HEK-293; conditions: 10µM
# [10] = biological target: CDK10/Cyclin L2 (Homo sapiens, UniProt Q15131); experiment: NanoBRET live-cell target engagement, CDK10-NanoLuc/Cyclin L2 in HEK-293; conditions: 10µM
# [11] = biological target: CDK11B/Cyclin L2 (Homo sapiens, UniProt P21127); experiment: NanoBRET live-cell target engagement, CDK11B-NanoLuc/Cyclin L2 in HEK-293; format: binding; conditions: CDK11b/L2, 10µM
# [12] = biological target: T1, CDK11A/Cyclin L2 (Homo sapiens, UniProt Q9UQ88); experiment: NanoBRET live-cell target engagement, CDK11A-NanoLuc/Cyclin L2 in HEK-293; format: binding; conditions: CDK11a/L2, 10µM
# T1 sequence (Q9UQ88 1-783): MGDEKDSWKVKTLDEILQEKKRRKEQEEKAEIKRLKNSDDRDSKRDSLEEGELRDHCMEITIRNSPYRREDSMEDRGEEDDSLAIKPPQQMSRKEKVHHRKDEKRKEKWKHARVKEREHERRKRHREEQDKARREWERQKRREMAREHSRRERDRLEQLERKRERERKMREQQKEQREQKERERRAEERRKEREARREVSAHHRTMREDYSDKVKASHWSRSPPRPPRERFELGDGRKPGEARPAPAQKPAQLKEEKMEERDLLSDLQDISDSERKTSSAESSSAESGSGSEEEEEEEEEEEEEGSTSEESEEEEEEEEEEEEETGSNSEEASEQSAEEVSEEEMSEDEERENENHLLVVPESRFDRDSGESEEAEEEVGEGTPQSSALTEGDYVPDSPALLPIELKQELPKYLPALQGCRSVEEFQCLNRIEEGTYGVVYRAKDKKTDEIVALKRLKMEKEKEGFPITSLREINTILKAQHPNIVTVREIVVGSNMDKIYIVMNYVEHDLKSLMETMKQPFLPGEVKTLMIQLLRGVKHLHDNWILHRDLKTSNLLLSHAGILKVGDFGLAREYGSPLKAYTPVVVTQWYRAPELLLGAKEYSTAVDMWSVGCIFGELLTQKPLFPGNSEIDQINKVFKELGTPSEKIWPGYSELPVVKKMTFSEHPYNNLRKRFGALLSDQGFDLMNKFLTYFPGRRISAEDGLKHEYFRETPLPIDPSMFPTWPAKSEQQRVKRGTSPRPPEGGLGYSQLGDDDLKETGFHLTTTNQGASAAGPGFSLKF
# [13] = biological target: CDK18/Cyclin Y (Homo sapiens, UniProt Q07002); experiment: NanoBRET live-cell target engagement, CDK18-NanoLuc/Cyclin Y in HEK-293; format: binding
# [14] = biological target: CDK9/Cyclin K (Homo sapiens, UniProt P50750); experiment: NanoBRET live-cell target engagement, NanoLuc-CDK9/Cyclin K in HEK-293; format: binding; conditions: CDK9/K, 10µM
# [15] = biological target: CDK8/Cyclin C (Homo sapiens, UniProt P49336); experiment: NanoBRET live-cell target engagement, NanoLuc-CDK8/Cyclin C in HEK-293; format: binding; conditions: CDK8/C, 10µM
# [16] = biological target: CDK3/Cyclin E1 (Homo sapiens, UniProt Q00526); experiment: NanoBRET live-cell target engagement, CDK3-NanoLuc/Cyclin E1 in HEK-293; format: binding; conditions: CDK3/E1, 10µM
# [17] = average of replicates, read-out: Inhibition at 10µM (%) Average
# [18] = read-out: Inhibition at 10µM (%) Replicate 1
# [19] = read-out: Inhibition at 10µM (%) Replicate 2
# Sequence of CDK8/Cyclin C (P49336 whole entry): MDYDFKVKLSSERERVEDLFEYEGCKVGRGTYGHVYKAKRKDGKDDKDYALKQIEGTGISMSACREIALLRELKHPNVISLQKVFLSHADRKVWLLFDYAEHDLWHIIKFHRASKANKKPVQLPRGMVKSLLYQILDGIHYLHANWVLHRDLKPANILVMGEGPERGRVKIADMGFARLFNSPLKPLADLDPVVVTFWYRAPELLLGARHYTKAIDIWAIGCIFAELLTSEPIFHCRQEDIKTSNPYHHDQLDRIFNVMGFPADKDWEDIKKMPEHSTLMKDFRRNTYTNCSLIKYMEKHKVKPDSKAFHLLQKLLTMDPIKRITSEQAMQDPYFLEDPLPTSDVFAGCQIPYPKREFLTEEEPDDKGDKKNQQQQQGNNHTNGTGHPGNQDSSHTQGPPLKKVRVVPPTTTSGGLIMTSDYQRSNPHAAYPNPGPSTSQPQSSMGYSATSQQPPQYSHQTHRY
# Sequence of CDK8/Cyclin C (P24863 whole entry partner): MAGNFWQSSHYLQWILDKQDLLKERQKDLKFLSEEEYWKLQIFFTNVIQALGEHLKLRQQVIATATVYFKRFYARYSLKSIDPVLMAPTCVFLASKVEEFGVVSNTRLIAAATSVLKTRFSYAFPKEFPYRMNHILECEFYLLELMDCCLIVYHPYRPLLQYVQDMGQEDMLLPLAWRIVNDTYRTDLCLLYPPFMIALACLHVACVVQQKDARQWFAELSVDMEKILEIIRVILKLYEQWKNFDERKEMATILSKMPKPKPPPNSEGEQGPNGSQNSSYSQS
# Sequence of CDK4/Cyclin D1 (P11802 whole entry): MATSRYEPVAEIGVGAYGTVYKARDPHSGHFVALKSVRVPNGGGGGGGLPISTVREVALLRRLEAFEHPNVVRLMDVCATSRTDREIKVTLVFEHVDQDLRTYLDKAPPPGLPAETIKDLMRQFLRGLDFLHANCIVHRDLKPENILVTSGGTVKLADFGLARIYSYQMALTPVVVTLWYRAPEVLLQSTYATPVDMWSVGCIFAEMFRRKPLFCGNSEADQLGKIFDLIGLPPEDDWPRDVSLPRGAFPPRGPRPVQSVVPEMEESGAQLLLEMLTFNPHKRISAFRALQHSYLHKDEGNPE
# Sequence of CDK4/Cyclin D1 (P24385 whole entry partner): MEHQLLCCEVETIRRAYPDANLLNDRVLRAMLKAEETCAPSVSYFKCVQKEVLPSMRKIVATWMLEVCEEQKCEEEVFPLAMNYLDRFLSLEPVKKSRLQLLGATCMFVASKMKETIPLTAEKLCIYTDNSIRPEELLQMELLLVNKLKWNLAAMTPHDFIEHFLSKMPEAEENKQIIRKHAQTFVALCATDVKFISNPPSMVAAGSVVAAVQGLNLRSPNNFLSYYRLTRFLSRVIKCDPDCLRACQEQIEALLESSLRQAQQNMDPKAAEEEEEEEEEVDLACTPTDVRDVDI
# Sequence of CDK9/Cyclin K (P50750 whole entry): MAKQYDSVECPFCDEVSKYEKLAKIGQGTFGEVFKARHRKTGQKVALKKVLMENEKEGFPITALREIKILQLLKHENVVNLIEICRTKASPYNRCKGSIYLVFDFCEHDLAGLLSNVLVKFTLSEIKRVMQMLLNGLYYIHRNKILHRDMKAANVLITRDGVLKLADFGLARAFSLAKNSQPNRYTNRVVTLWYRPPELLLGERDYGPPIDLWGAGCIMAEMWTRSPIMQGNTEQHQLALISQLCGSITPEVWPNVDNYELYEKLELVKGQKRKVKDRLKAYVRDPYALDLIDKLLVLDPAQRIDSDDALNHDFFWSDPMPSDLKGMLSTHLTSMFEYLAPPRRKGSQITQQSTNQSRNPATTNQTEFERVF
# Sequence of CDK9/Cyclin K (O75909 whole entry partner): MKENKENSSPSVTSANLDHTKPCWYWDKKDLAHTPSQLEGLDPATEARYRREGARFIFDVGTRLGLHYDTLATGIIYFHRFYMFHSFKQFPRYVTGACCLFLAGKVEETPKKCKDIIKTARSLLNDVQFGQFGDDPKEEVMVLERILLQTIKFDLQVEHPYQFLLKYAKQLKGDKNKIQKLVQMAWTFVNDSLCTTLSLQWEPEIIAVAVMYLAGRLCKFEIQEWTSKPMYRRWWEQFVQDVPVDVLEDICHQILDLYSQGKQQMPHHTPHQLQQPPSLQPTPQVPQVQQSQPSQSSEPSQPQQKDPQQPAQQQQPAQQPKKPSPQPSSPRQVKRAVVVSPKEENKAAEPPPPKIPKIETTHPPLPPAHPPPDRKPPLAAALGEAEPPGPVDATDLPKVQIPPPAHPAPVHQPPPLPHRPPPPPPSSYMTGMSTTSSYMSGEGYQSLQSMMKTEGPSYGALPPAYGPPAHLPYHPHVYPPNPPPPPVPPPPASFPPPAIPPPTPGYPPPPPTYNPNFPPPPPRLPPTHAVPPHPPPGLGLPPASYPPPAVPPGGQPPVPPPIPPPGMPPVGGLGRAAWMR
# Sequence of CDK18/Cyclin Y (Q07002 whole entry): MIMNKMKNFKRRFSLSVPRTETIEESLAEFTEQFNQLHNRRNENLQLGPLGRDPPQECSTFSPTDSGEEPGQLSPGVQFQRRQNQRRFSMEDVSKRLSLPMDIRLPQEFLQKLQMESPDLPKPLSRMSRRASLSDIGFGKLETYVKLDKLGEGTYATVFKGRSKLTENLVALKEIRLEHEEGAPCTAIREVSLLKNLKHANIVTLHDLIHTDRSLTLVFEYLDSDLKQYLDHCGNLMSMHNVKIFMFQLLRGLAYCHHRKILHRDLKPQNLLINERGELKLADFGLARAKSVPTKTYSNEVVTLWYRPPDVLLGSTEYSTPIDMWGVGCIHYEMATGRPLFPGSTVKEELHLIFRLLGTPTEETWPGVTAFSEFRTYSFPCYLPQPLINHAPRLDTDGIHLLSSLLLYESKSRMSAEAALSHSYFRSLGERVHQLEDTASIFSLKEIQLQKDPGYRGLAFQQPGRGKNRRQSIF
# Sequence of CDK18/Cyclin Y (Q8ND76 whole entry partner): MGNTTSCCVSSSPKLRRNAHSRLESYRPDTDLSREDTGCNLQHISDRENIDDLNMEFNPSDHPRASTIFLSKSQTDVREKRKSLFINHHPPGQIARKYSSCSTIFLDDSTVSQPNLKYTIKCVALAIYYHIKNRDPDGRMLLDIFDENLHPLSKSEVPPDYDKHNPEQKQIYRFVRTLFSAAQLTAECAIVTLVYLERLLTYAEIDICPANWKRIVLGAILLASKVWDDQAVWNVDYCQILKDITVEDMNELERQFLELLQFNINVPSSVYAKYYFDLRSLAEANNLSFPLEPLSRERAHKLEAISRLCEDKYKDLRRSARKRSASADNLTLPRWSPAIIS
# Sequence of CDK6/Cyclin D1 (Q00534 whole entry): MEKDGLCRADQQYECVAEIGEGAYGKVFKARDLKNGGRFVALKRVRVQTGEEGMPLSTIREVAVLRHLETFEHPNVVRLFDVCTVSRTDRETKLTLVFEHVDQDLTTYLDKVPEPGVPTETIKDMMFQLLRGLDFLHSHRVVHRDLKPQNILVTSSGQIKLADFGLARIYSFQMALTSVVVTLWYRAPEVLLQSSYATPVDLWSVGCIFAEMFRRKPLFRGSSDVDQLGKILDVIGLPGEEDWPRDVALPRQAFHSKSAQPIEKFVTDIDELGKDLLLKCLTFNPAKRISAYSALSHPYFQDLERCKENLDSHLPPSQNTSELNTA
# Sequence of CDK6/Cyclin D1 (P24385 whole entry partner): as the sequence (P24385 whole entry partner) above
# Sequence of CDK11B/Cyclin L2 (P21127 1-782 isoform P21127-2): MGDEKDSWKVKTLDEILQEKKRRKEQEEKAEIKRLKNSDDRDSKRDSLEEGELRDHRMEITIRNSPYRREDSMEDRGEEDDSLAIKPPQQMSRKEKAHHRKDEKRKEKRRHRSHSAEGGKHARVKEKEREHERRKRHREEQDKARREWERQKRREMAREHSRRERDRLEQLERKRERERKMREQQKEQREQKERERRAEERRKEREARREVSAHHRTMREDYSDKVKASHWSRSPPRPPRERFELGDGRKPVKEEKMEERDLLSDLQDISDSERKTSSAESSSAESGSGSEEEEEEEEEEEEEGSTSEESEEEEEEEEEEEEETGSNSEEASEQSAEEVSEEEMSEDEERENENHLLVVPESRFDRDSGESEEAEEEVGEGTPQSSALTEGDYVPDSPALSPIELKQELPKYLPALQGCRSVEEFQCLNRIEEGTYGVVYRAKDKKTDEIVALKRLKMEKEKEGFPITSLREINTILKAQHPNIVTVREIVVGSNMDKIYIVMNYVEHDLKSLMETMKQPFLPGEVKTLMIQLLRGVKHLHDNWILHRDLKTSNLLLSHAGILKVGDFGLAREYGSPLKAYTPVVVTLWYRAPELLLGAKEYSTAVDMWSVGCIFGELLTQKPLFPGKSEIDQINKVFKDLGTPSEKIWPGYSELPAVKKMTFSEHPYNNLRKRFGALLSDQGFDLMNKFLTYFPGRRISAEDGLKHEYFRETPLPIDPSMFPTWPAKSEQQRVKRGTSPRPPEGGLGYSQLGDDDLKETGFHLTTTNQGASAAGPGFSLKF
# Sequence of CDK15/Cyclin Y (Q96Q40 whole entry): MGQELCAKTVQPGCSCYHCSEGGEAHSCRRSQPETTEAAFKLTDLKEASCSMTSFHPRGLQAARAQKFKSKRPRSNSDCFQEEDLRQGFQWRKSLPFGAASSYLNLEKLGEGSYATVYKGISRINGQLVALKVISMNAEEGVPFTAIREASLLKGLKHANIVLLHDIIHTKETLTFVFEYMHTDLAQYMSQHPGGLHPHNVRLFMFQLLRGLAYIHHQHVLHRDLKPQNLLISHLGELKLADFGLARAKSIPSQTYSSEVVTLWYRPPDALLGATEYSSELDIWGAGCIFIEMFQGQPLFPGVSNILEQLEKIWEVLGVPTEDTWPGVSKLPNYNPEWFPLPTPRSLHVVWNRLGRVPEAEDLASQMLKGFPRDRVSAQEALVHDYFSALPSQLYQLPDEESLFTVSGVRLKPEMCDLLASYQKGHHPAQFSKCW
# Sequence of CDK15/Cyclin Y (Q8ND76 whole entry partner): as the sequence (Q8ND76 whole entry partner) above
smiles,measurement,setting,value
CCN1CCN(Cc2ccc(Nc3ncc(F)c(-c4cc(F)c5nc(C)n(C(C)C)c5c4)n3)nc2)CC1 [Abemaciclib],inhibition at 10 µM,[1]; [17],63.4%
same,inhibition at 10 µM,[1]; [18],65.2%
same,inhibition at 10 µM,[1]; [19],61.7%
same,inhibition at 10 µM,[2]; [17],99.4%
same,inhibition at 10 µM,[2]; [18],99.4%
same,inhibition at 10 µM,[2]; [19],99.4%
same,inhibition at 10 µM,[3]; [17],57.4%
same,inhibition at 10 µM,[3]; [18],57.3%
same,inhibition at 10 µM,[3]; [19],57.5%
same,inhibition at 10 µM,[4]; [17],40.9%
same,inhibition at 10 µM,[4]; [18],38%
same,inhibition at 10 µM,[4]; [19],43.8%
same,inhibition at 10 µM,[5]; [17],83%
same,inhibition at 10 µM,[5]; [18],83%
same,inhibition at 10 µM,[5]; [19],82.9%
same,inhibition at 10 µM,[6]; [17],99.6%
same,inhibition at 10 µM,[6]; [18],100%
same,inhibition at 10 µM,[6]; [19],99%
same,inhibition at 10 µM,[7]; [18],86.3%
same,inhibition at 10 µM,[7]; [19],85.8%
same,inhibition at 10 µM,[8]; [18],8.8%
same,inhibition at 10 µM,[8]; [19],28.5%
same,inhibition at 10 µM,"[9]; read-out: Inhibition at 10µM (%) Average, CDK19/C, average of replicates",40.7%
same,inhibition at 10 µM,"[9]; read-out: Inhibition at 10µM (%) Replicate 1, CDK19/C",41.9%
same,inhibition at 10 µM,"[9]; read-out: Inhibition at 10µM (%) Replicate 2, CDK19/C",39.5%
same,inhibition at 10 µM,"[10]; read-out: Inhibition at 10µM (%) Average, CDK10/L2, average of replicates",20.9%
same,inhibition at 10 µM,"[10]; read-out: Inhibition at 10µM (%) Replicate 1, CDK10/L2",21.5%
same,inhibition at 10 µM,"[10]; read-out: Inhibition at 10µM (%) Replicate 2, CDK10/L2",20.2%
same,inhibition at 10 µM,[11]; [17],27.7%
same,inhibition at 10 µM,[11]; [18],27.9%
same,inhibition at 10 µM,[11]; [19],27.6%
same,inhibition at 10 µM,[12]; [17],21.8%
same,inhibition at 10 µM,[12]; [18],19.9%
same,inhibition at 10 µM,[12]; [19],23.7%
same,inhibition at 10 µM,"[13]; CDK18/Y, average of replicates, read-out: Inhibition at 10µM (%) Average",74.8%
same,inhibition at 10 µM,"[13]; CDK18/Y, read-out: Inhibition at 10µM (%) Replicate 1",73.2%
same,inhibition at 10 µM,"[13]; CDK18/Y, read-out: Inhibition at 10µM (%) Replicate 2",76.3%
same,IC50,"[13]; CDK18/Y, read-out: IC50 (nM) Replicate 1",304 nM
same,IC50,"[13]; IC50 (nM) Average*, CDK18/Y, n=3 average ± SEM, n=2 average to 2 significant figures",380 ± 60 nM
same,IC50,"[13]; IC50 (nM) Replicate 2, CDK18/Y",350 nM
same,IC50,"[13]; IC50 (nM) Replicate 3, CDK18/Y",496 nM
same,inhibition at 10 µM,[14]; [17],84.3%
same,inhibition at 10 µM,[14]; [18],79.2%
same,inhibition at 10 µM,[14]; [19],89.3%
same,inhibition at 10 µM,[15]; [17],35.7%
same,inhibition at 10 µM,[15]; [18],27.2%
same,inhibition at 10 µM,[15]; [19],44.2%
same,inhibition at 10 µM,[16]; [17],62.2%
same,inhibition at 10 µM,[16]; [18],62.2%
same,inhibition at 10 µM,[16]; [19],62.3%
